Test results published in patent US20090047243A1, “COMBINATIONS FOR THE TREATMENT OF B-CELL PROLIFERATIVE DISORDERS” (priority 2007, published 2009).

Legend:
[1] = system: H929 multiple myeloma cell line; assay: Anti-proliferation assay (ATPLite, 72 h); assay type: cell-based, human; design: key: S = lnfX·lnfY·ΣIdata(Idata−ILoewe), volume over Loewe additivity; settings: for synergy (score), PDEi × HE-NECA: 6×6 cross of PDE inhibitor or PDE inhibitor mixture with HE-NECA
Experimental: (§1) ANBL6 and INA-6 culture media was also supplemented with 10 ng/ml IL-6. […] MM.1S, MM.1R, OCI-ly10, Karpas 422, and SU-DHL6 cells were provided by the Dana Farber Cancer Institute. H929, RPMI-8226, GA-10, and Farage cells were from ATCC (Cat #'s CCL-155, CRL-9068, CRL-2392 and CRL-2630 respectively). MOLP-8, EJM, KSM-12-PE, and OPM2 were from DSMZ. The ANBL6 and INA-6 cell lines were provided by the M. D. Anderson Cancer Research Center. Compounds were prepared in DMSO at 1000× the highest desired concentration. Master plates were generated consisting of serially diluted compounds in 2- or 3-fold dilutions in 384-well format. For single agent dose response curves, the master plates consisted of 9 individual compounds at 12 concentrations in 2- or 3-fold dilutions. For combination matrices, master plates consisted of individual compounds at 6 or 9 concentrations at 2- or 3-fold dilutions. […] To obtain combination data, two master plates were diluted into the assay plates. […] Thirty microliters of ATPLite (Perkin Elmer) at room temperature was then added to each well. […] Measurements were taken at the top of the well using a luminescence aperture and a read time of 0.1 seconds per well. The percent inhibition (% I) for each well was calculated using the following formula: % I=[(avg. untreated wells-treated well)/(avg. untreated wells)]×100. […] Negative inhibition values result from local variations in treated wells as compared to untreated wells. […] The uncertainty of each fitted parameter was estimated from the range over which the change in reduced chi-squared was less than one, or less than minimum reduced chi-squared if that minimum exceeded one, to allow for underestimated σI errors. Single agent curve data were used to define a dilution series for each compound to be used for combination screening in a 6×6 matrix format. […] The Loewe additivity model was used to quantify combination effects. […] A “Synergy Score” was also used, where the Synergy Score S=log fX log fY ΣIdata(Idata-ILoewe), summed over all non-single-agent concentration pairs, and where log fX,Y is the natural logarithm of the dilution factors used for each single agent. This effectively calculates a volume between the measured and Loewe additive response surfaces, weighted towards high inhibition and corrected for varying dilution factors. An uncertainty σS was calculated for each synergy score, based on the measured errors for the Idata values and standard error propagation.

[2] = system: RPMI-8226 multiple myeloma cell line; assay: Anti-proliferation assay (ATPLite, 72 h); assay type: cell-based, human; design: key: S = lnfX·lnfY·ΣIdata(Idata−ILoewe), volume over Loewe additivity
Experimental: as §1

[3] = system: human multiple myeloma cells (MM.1S); assay: Anti-proliferation assay (ATPLite, 72 h); assay type: cell-based; design: key to synergy score / synergy (score), PDEi × HE-NECA: S = lnfX·lnfY·ΣIdata(Idata−ILoewe), volume over Loewe additivity; settings: for synergy (score), PDEi × HE-NECA: 6×6 cross of PDE inhibitor or PDE inhibitor mixture with HE-NECA
Experimental: as §1

[4] = system: human multiple myeloma cells (MM.1R); assay: Anti-proliferation assay (ATPLite, 72 h); assay type: cell-based; design: key: S = lnfX·lnfY·ΣIdata(Idata−ILoewe), volume over Loewe additivity
Experimental: as §1

[5] = system: phosphodiesterase (PDE) types; settings: PDE type(s) in brackets after the name; cited from earlier work
[6] = PDE inhibitor crossed with (S) ENBA, H929
[7] = PDE inhibitor crossed with ADAC, H929
[8] = PDE inhibitor crossed with Chloro-IB-MECA, H929
[9] = PDE inhibitor crossed with HE-NECA, H929
[10] = in combination with adenosine receptor agonist CGS-21680, H929
[11] = in combination with adenosine receptor agonist HE-NECA, H929
[12] = in combination with adenosine receptor agonist regadenoson, H929
[13] = in combination with adenosine receptor agonist CGS-21680, RPMI 8226
[14] = in combination with adenosine receptor agonist HE-NECA, RPMI-8226
[15] = in combination with adenosine receptor agonist regadenoson, RPMI 8226
[16] = PDE inhibitor crossed with (S) ENBA, MM.1S
[17] = PDE inhibitor crossed with ADAC, MM.1S
[18] = PDE inhibitor crossed with Chloro-IB-MECA, MM.1S
[19] = PDE inhibitor crossed with HE-NECA, MM.1S
[20] = in combination with adenosine receptor agonist CGS-21680, MM.1S
[21] = in combination with adenosine receptor agonist HE-NECA, MM.1S
[22] = in combination with adenosine receptor agonist regadenoson, MM.1S
[23] = in combination with adenosine receptor agonist CGS-21680, MM.1R
[24] = in combination with adenosine receptor agonist regadenoson, MM.1R
[25] = in combination with adenosine receptor agonist ADAC, H929
[26] = in combination with adenosine receptor agonist ADAC, RPMI-8226
[27] = in combination with adenosine receptor agonist ADAC, MM.1S
[28] = in combination with adenosine receptor agonist ADAC, MM.1R

Compound	synergy score [1, 6]	synergy score [1, 7]	synergy score [1, 8]	synergy score [1, 9]	synergy score [1, 10]	synergy score [1, 11]	synergy score [1, 12]	synergy score [2, 13]	synergy score [2, 14]	synergy score [2, 15]	synergy score [3, 16]	synergy score [3, 17]	synergy score [3, 18]	synergy score [3, 19]	synergy score [3, 20]	synergy score [3, 21]	synergy score [3, 22]	synergy score [4, 23]	synergy score [4, 24]	PDE inhibitors (specificity) [5]	also measured
COc1ccc(Cc2nn3c([C@@H](CCCc4ccccc4)[C@@H](C)O)nc(C)c3c(=O)[nH]2)cc1OC [BAY 60-7550, 2-(3,4-dimethoxybenzyl)-7-[(1R)-1-[(1R)-1-hydroxyethyl]-4-phenylbutyl]-5-methylimidazo[5,1-f][1,2,4]triazin-4(3H)-one]	1.07	0.55	0.74	3.71	3.86	1.933	1.89	0.76	0.7784	0.98	2.84	0.85	0.86	3.8	3.85	2.364	0.91	4.59	3.07	BAY 60-7550 (2)	synergy (score), PDEi × HE-NECA ([1]; H929): 1.68; synergy (score), PDEi × HE-NECA ([3]; MM.1S): 1.64; inhibition at 0.7375 µM ([3]; Homo sapiens, MM1.S, BAY 60-7550 0.7375 μM, HE-NECA conc. (nM), read-out: Percent inhibition of ATP in MM.1S cells): -9.4%; inhibition at 1.475 µM ([3]; Homo sapiens, MM1.S, BAY 60-7550 1.475 μM, HE-NECA conc. (nM), read-out: Percent inhibition of ATP in MM.1S cells): -3.6%; inhibition at 2.95 µM ([3]; Homo sapiens, MM1.S, BAY 60-7550 2.95 μM, HE-NECA conc. (nM), read-out: Percent inhibition of ATP in MM.1S cells): 4%; inhibition at 5.9 µM ([3]; Homo sapiens, MM1.S, BAY 60-7550 5.9 μM, HE-NECA conc. (nM), read-out: Percent inhibition of ATP in MM.1S cells): 6%; inhibition at 11.8 µM ([3]; Homo sapiens, MM1.S, BAY 60-7550 11.8 μM, HE-NECA conc. (nM), read-out: Percent inhibition of ATP in MM.1S cells): 13%
Cc1ccc([N+](=O)[O-])cc1S(=O)(=O)N(C)C [BRL-50481, 3-(N,N-dimethylsulfonamido)-4-methyl-nitrobenzene]	0.26		0.34	0.23	0.34	0.193	0.19	0.19	0.147	0.39	1.22		1.47	1.41	1.78	1.38	0.82	1.22	1.09	BRL-50481(7)	
CCCCOc1cc(CC2CNC(=O)N2)ccc1OC (centres unmarked) [RO-20-1724, 4-(3-butoxy-4-methoxybenzyl)-2-imidazolidinone]	0.09	1.11	1.14	2.51							0.73	1.71	1.6	3.58						RO-20-1724 (4)	synergy score [1, 25]: 1.1; synergy score [2, 26]: 0.51; inhibition at 2.28 µM ([3]; Homo sapiens, MM1.S, RO-20-1724 2.28 μM, HE-NECA conc. (nM), read-out: Percent inhibition of ATP in MM.1S cells): 2.3%; inhibition at 4.55 µM ([3]; Homo sapiens, MM1.S, RO-20-1724 4.55 μM, HE-NECA conc. (nM), read-out: Percent inhibition of ATP in MM.1S cells): 11%; inhibition at 18.2 µM ([3]; Homo sapiens, MM1.S, RO-20-1724 18.2 μM, HE-NECA conc. (nM), read-out: Percent inhibition of ATP in MM.1S cells): 10%; inhibition at 36.4 µM ([3]; Homo sapiens, MM1.S, RO-20-1724 36.4 μM, HE-NECA conc. (nM), read-out: Percent inhibition of ATP in MM.1S cells): 1.4%; synergy score [3, 27]: 1.71; synergy score [4, 28]: 3.42
O=C1CCc2cc(OCCCCc3nnnn3C3CCCCC3)ccc2N1 [Cilostazol, 6-[4-(1-cyclohexyl-1H-tetrazol-5-yl)butoxy]-3,4-dihydro-2(1H)-quinolinone]	0.4	0.36	0.46	1.21	1.12	0.6849	1.34	0.37	0.2486	0.12	1.73	0.89	0.75	3.50	4.09	1.849	1.85	1.57	0.76	Cilostazol (3)	
CN(C(=O)CCCOc1ccc2[nH]c(=O)ccc2c1)C1CCCCC1 [Cilostamide, N-cyclohexyl-4-((1,2-dihydro-2-oxo-6-quinolinyl)oxy)-N-methyl-butanamide]	1.17		0.65	0.28		1.67			0.2381				1.1	0.49		1.637				Cilostamide (3)	synergy (score), PDEi × HE-NECA ([1]; H929): 0.56; synergy (score), PDEi × HE-NECA ([3]; MM.1S): 1.02; synergy score ([4]; in combination with adenosine receptor agonist HE-NECA, MM.1R): 1.692
COc1ccc(C2CNC(=O)C2)cc1OC1CCCC1 (centres unmarked) [Rolipram, 4-(3-cyclopentyloxy-4-methoxyphenyl)-2-pyrrolidone]	0.46	1.11	0.74	1.09		1.089			0.2845		0.73	1.15	1.11	1.08		1.076				Rolipram (4)	synergy score [1, 25]: 1.114; synergy score [2, 26]: 0.4277; synergy score [3, 27]: 1.147; synergy score [4, 28]: 4.105
